{"source": "patent US20230085307A1", "about": "“PYRIDAZINONE COMPOUND AND HERBICIDE” (NISSAN CHEMICAL CORPORATION, priority 2019, published 2023)", "key": {"[1]": {"system": "barnyard grass", "test": "Test Example 3: herbicidal effect by foliage application, Wagner pot (Table 18, symbol H)", "assay_type": "in vivo, barnyard grass (Echinochloa crus-galli)", "details": "283 g/ha", "in_short": "(§1)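 Plants were sown in alluvial soil held under 0.1–0.5 cm standing water and grown 14 days in a greenhouse at 25–30 °C. An emulsifiable formulation, water-diluted to the set dose, was then sprayed onto the foliage, and effects were scored three weeks later using previously defined criteria.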"}, "[2]": {"system": "Chinese sprangletop", "test": "Test Example 3: herbicidal effect by foliage application, Wagner pot (Table 18, symbol D)", "assay_type": "in vivo, chinese sprangletop (Leptochloa chinensis)", "details": "283 g/ha", "in_short": "as §1"}, "[3]": {"system": "rice flat sedge", "test": "Test Example 3: herbicidal effect by foliage application, Wagner pot (Table 18, symbol E)", "assay_type": "in vivo, rice flat sedge (Cyperus iria)", "details": "283 g/ha", "in_short": "as §1"}, "[4]": {"system": "southern crabgrass", "test": "Test Example 4: herbicidal effect by soil treatment (Table 19, symbol F)", "assay_type": "in vivo, southern crabgrass (Digitaria ciliaris)", "details": "283 g/ha", "in_short": "(§2)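 Pre-emergence style soil spray: seeds under ~1.5 cm sterilized diluvial soil received a uniform coat of emulsion diluted to the predetermined herbicide amount. Greenhouse 25–30° C; readout at week three on previously defined criteria.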"}, "[5]": {"system": "green foxtail", "test": "Test Example 4: herbicidal effect by soil treatment (Table 19, symbol G)", "assay_type": "in vivo, green foxtail (Setaria viridis)", "details": "283 g/ha", "in_short": "as §2"}, "[6]": {"system": "barnyard grass", "test": "Test Example 4: herbicidal effect by soil treatment (Table 19, symbol H)", "assay_type": "in vivo, barnyard grass (Echinochloa crus-galli)", "details": "283 g/ha", "in_short": "as §2"}, "[7]": {"system": "wild oat", "test": "Test Example 4: herbicidal effect by soil treatment (Table 19, symbol I)", "assay_type": "in vivo, wild oat (Avena fatua)", "details": "283 g/ha", "in_short": "as §2"}, "[8]": {"system": "blackgrass", "test": "Test Example 4: herbicidal effect by soil treatment (Table 19, symbol J)", "assay_type": "in vivo, blackgrass (Alopecurus myosuroides)", "details": "283 g/ha", "in_short": "as §2"}, "[9]": {"system": "Italian ryegrass", "test": "Test Example 4: herbicidal effect by soil treatment (Table 19, symbol K)", "assay_type": "in vivo, Italian ryegrass (Lolium multiflorum)", "details": "283 g/ha", "in_short": "as §2"}, "[10]": {"system": "windgrass", "test": "Test Example 4: herbicidal effect by soil treatment (Table 19, symbol L)", "assay_type": "in vivo, windgrass (Apera spica-venti)", "details": "283 g/ha", "in_short": "as §2"}, "[11]": {"system": "velvetleaf", "test": "Test Example 4: herbicidal effect by soil treatment (Table 19, symbol M)", "assay_type": "in vivo, velvetleaf (Abutilon theophrasti)", "details": "283 g/ha", "in_short": "as §2"}, "[12]": {"system": "redroot pigweed", "test": "Test Example 4: herbicidal effect by soil treatment (Table 19, symbol N)", "assay_type": "in vivo, redroot pigweed (Amaranthus retroflexus)", "details": "283 g/ha", "in_short": "as §2"}, "[13]": {"system": "lambsquarters", "test": "Test Example 4: herbicidal effect by soil treatment (Table 19, symbol O)", "assay_type": "in vivo, lambsquarters (Chenopodium album)", "details": "283 g/ha", "in_short": "as §2"}, "[14]": {"system": "chickweed", "test": "Test Example 4: herbicidal effect by soil treatment (Table 19, symbol P)", "assay_type": "in vivo, common chickweed (Stellaria media)", "details": "283 g/ha", "in_short": "as §2"}, "[15]": {"system": "false cleavers", "test": "Test Example 4: herbicidal effect by soil treatment (Table 19, symbol Q)", "assay_type": "in vivo, false cleavers (Galium spurium)", "details": "283 g/ha", "in_short": "as §2"}, "[16]": {"system": "persian speedwell", "test": "Test Example 4: herbicidal effect by soil treatment (Table 19, symbol R)", "assay_type": "in vivo, Persian speedwell (Veronica persica)", "details": "283 g/ha", "in_short": "as §2"}, "[17]": {"system": "southern crabgrass", "test": "Test Example 5: herbicidal effect by foliage application, plastic box (Table 20, symbol F)", "assay_type": "in vivo, southern crabgrass (Digitaria ciliaris)", "details": "foliage application, 283 g/ha, 3 weeks after application", "in_short": "(§3)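 Plants were sown into sterilized diluvial soil under about 1.5 cm cover and kept in a greenhouse at 25° C. to 30° C. Fourteen days on, foliage received an even spray of the diluted emulsion. Herbicidal or crop effect was judged three weeks afterwards.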"}, "[18]": {"system": "green foxtail", "test": "Test Example 5: herbicidal effect by foliage application, plastic box (Table 20, symbol G)", "assay_type": "in vivo, green foxtail (Setaria viridis)", "details": "foliage application, 283 g/ha, 3 weeks after application", "in_short": "as §3"}, "[19]": {"system": "barnyard grass", "test": "Test Example 5: herbicidal effect by foliage application, plastic box (Table 20, symbol H)", "assay_type": "in vivo, barnyard grass (Echinochloa crus-galli)", "details": "foliage application, 283 g/ha, 3 weeks after application", "in_short": "as §3"}, "[20]": {"system": "wild oat", "test": "Test Example 5: herbicidal effect by foliage application, plastic box (Table 20, symbol I)", "assay_type": "in vivo, wild oat (Avena fatua)", "details": "foliage application, 283 g/ha, 3 weeks after application", "in_short": "as §3"}, "[21]": {"system": "blackgrass", "test": "Test Example 5: herbicidal effect by foliage application, plastic box (Table 20, symbol J)", "assay_type": "in vivo, blackgrass (Alopecurus myosuroides)", "details": "foliage application, 283 g/ha, 3 weeks after application", "in_short": "as §3"}, "[22]": {"system": "Italian ryegrass", "test": "Test Example 5: herbicidal effect by foliage application, plastic box (Table 20, symbol K)", "assay_type": "in vivo, Italian ryegrass (Lolium multiflorum)", "details": "foliage application, 283 g/ha, 3 weeks after application", "in_short": "as §3"}, "[23]": {"system": "windgrass", "test": "Test Example 5: herbicidal effect by foliage application, plastic box (Table 20, symbol L)", "assay_type": "in vivo, windgrass (Apera spica-venti)", "details": "foliage application, 283 g/ha, 3 weeks after application", "in_short": "as §3"}, "[24]": {"system": "velvetleaf", "test": "Test Example 5: herbicidal effect by foliage application, plastic box (Table 20, symbol M)", "assay_type": "in vivo, velvetleaf (Abutilon theophrasti)", "details": "foliage application, 283 g/ha, 3 weeks after application", "in_short": "as §3"}, "[25]": {"system": "lambsquarters", "test": "Test Example 5: herbicidal effect by foliage application, plastic box (Table 20, symbol O)", "assay_type": "in vivo, lambsquarters (Chenopodium album)", "details": "foliage application, 283 g/ha, 3 weeks after application", "in_short": "as §3"}, "[26]": {"system": "false cleavers", "test": "Test Example 5: herbicidal effect by foliage application, plastic box (Table 20, symbol Q)", "assay_type": "in vivo, false cleavers (Galium spurium)", "details": "foliage application, 283 g/ha, 3 weeks after application", "in_short": "as §3"}, "[27]": {"system": "persian speedwell", "test": "Test Example 5: herbicidal effect by foliage application, plastic box (Table 20, symbol R)", "assay_type": "in vivo, Persian speedwell (Veronica persica)", "details": "foliage application, 283 g/ha, 3 weeks after application", "in_short": "as §3"}}, "data": [{"smiles": "CCCC(=O)Oc1c(C)nn(C)c(=O)c1-c1c(-c2ccccc2OC)sc2ccc(F)cc12", "note": "[2-025]", "values": [{"measurement": "herbicidal effect on H (barnyard grass), rating 0-5", "setting": "[1]", "result": "4 (Herbicidal rate of 70% or more and less than 90%)"}, {"measurement": "herbicidal effect on D (Chinese sprangletop), rating 0-5", "setting": "[2]", "result": "0 (Herbicidal rate of 5% or less (almost no effect))"}, {"measurement": "herbicidal effect on E (rice flat sedge), rating 0-5", "setting": "[3]", "result": "4 (Herbicidal rate of 70% or more and less than 90%)"}, {"measurement": "herbicidal effect rating, F: southern crabgrass", "setting": "[4]", "result": "3 (Herbicidal rate of 40% or more and less than 70%)"}, {"measurement": "herbicidal effect rating, G: green foxtail", "setting": "[5]", "result": "4 (Herbicidal rate of 70% or more and less than 90%)"}, {"measurement": "herbicidal effect rating, H: barnyard grass", "setting": "[6]", "result": "3 (Herbicidal rate of 40% or more and less than 70%)"}, {"measurement": "herbicidal effect rating, I: wild oat", "setting": "[7]", "result": "3 (Herbicidal rate of 40% or more and less than 70%)"}, {"measurement": "herbicidal effect rating, J: blackgrass", "setting": "[8]", "result": "0 (Herbicidal rate of 5% or less (almost no effect))"}, {"measurement": "herbicidal effect rating, K: Italian ryegrass", "setting": "[9]", "result": "0 (Herbicidal rate of 5% or less (almost no effect))"}, {"measurement": "herbicidal effect rating, L: windgrass", "setting": "[10]", "result": "0 (Herbicidal rate of 5% or less (almost no effect))"}, {"measurement": "herbicidal effect rating, M: velvetleaf", "setting": "[11]", "result": "2 (Herbicidal rate of 20% or more and less than 40%)"}, {"measurement": "herbicidal effect rating, N: redroot pigweed", "setting": "[12]", "result": "3 (Herbicidal rate of 40% or more and less than 70%)"}, {"measurement": "herbicidal effect rating, O: lambsquarters", "setting": "[13]", "result": "4 (Herbicidal rate of 70% or more and less than 90%)"}, {"measurement": "herbicidal effect rating, P: chickweed", "setting": "[14]", "result": "4 (Herbicidal rate of 70% or more and less than 90%)"}, {"measurement": "herbicidal effect rating, Q: false cleavers", "setting": "[15]", "result": "4 (Herbicidal rate of 70% or more and less than 90%)"}, {"measurement": "herbicidal effect rating, R: persian speedwell", "setting": "[16]", "result": "3 (Herbicidal rate of 40% or more and less than 70%)"}, {"measurement": "effect on southern crabgrass (F)", "setting": "[17]", "result": "4 (Herbicidal rate of 70% or more and less than 90%)"}, {"measurement": "effect on green foxtail (G)", "setting": "[18]", "result": "4 (Herbicidal rate of 70% or more and less than 90%)"}, {"measurement": "effect on barnyard grass (H)", "setting": "[19]", "result": "3 (Herbicidal rate of 40% or more and less than 70%)"}, {"measurement": "effect on wild oat (I)", "setting": "[20]", "result": "3 (Herbicidal rate of 40% or more and less than 70%)"}, {"measurement": "effect on blackgrass (J)", "setting": "[21]", "result": "0 (Herbicidal rate of 5% or less (almost no effect))"}, {"measurement": "effect on Italian ryegrass (K)", "setting": "[22]", "result": "1 (Herbicidal rate of 5% or more and less than 20%)"}, {"measurement": "effect on windgrass (L)", "setting": "[23]", "result": "1 (Herbicidal rate of 5% or more and less than 20%)"}, {"measurement": "effect on velvetleaf (M)", "setting": "[24]", "result": "5 (Herbicidal rate of 90% or more (almost completely withered))"}, {"measurement": "effect on lambsquarters (O)", "setting": "[25]", "result": "3 (Herbicidal rate of 40% or more and less than 70%)"}, {"measurement": "effect on false cleavers (Q)", "setting": "[26]", "result": "4 (Herbicidal rate of 70% or more and less than 90%)"}, {"measurement": "effect on persian speedwell (R)", "setting": "[27]", "result": "4 (Herbicidal rate of 70% or more and less than 90%)"}]}]}
